Patent US20070032477A1, “Pteridine derivatives useful for making pharmaceutical compositions” (priority 2003, published 2007)

Experiments:
[1] = tested on: production of IL-1 β by PBMC in response to stimulation by LPS; test: IL-1 β assay; assay type: cell-based, human; settings: LPS 1 μg/ml, 72 hours, sandwich ELISA
Experimental: Peripheral blood mononuclear cells (herein referred as PBMC), in response to stimulation by lipopolysaccharide (LPS), a gram-negative bacterial endotoxin, produce various […], in particular human IL-1 β. Inhibition of the activation of PBMC can therefore be measured by the level of suppression of the production of IL-1 β by PBMC in response to stimulation by LPS.
Such inhibition measurement was performed as follows: PBMC were isolated from heparinized peripheral blood by density gradient centrifugation over Lymphoprep (commercially available from Nycomed, Norway). LPS was then added to the PMBC suspension in complete medium (10^6 cells/ml) at a final concentration of 1 μg/ml. The pteridine derivative to be tested was added at different concentrations (0.1 μM, 1 μM and 10 μM) and the cells were incubated at 37° C. for 72 hours in 5% CO2. The supernatants were collected, then IL-1 β concentrations were measured with an anti-IL-1 β antibody in a sandwich ELISA. The calorimetric reading of the ELISA was measured by a Multiskan RC plate reader (commercially available from ThermoLabsystems, Finland) at 450 nm (reference wavelength: 690 nm). Data analysis was performed with Ascent software 2.6. (also from ThermoLabsystems, Finland): a standard curve (recombinant human IL-1 β) was drawn and the amount (pg/ml) of each sample on the standard curve was determined.
The % suppression of human IL-1 β by the pteridine derivatives (drugs) of this invention was calculated using the formula: [formula]

[2] = tested on: mixed lymphocyte reaction (PBMC with allogeneic PBMC or Eppstein-Barr Virus-transformed human B cells as stimulator cells); test: Mixed lymphocyte reaction (MLR) assay; assay type: cell-based; settings: lowest concentration giving 50% suppression of the MLR; [3H]-thymidine
[3] = tested on: production of TNF-α by PBMC in response to stimulation by LPS; test: TNF-α assay; assay type: cell-based, human; settings: LPS 1 μg/ml, 72 hours, sandwich ELISA
How it was run: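 Cells were LPS-stimulated (1 μg/ml final) peripheral blood mononuclear cells at 10^6/ml, exposed 72 h at 37 °C to 0.1, 1 or 10 μM test compound.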

“2-amino-4-(1-butylpiperazino)-6-(3,4-dimethoxyphenyl)pteridine [Example 125]” showed an IC50 [1] of 7500 nM and an IC50 [2] of 800 nM.
With “2-amino-4-(1-cyclopentylpiperazino)-6-(3,4-dimethoxyphenyl)pteridine [Example 124]” the IC50 [1] was 5000 nM and the IC50 [3] was 400 nM.
Compound “2-amino-4-(1-isopropylpiperazino)-6-(3,4-dimethoxyphenyl)pteridine [Example 126]” has an IC50 [1] of 3700 nM and an IC50 [2] of 4900 nM.
“2-amino-4-(3-(piperazin-1-yl)-propionic acid ethyl ester)-6-(3,4-dimethoxyphenyl)pteridine [Example 134]” showed an IC50 [1] of 1200 nM and an IC50 [3] of 70 nM.
Work on “2-amino-4-((1-phenylethyl)-piperazin-1-yl)-6-(3,4-dimethoxyphenyl)pteridine [Example 152]” yielded an IC50 [1] of 3600 nM, an IC50 [3] of 300 nM and an IC50 [2] of 1200 nM.
In the case of “2-amino-4-((2-pyridyl)-piperazin-1-yl)-6-(3,4-dimethoxyphenyl)pteridine [Example 146]”, the IC50 [1] is reported as 5000 nM, the IC50 [3] is reported as 200 nM and the IC50 [2] is reported as 200 nM.
“2-amino-4-((3-dichlorophenyl)-piperazin-1-yl)-6-(3,4-dimethoxyphenyl)pteridine [Example 151]” showed an IC50 [1] of 3700 nM and an IC50 [3] of 100 nM.
“2-amino-4-((3-methoxyphenyl)-piperazin-1-yl)-6-(3,4-dimethoxyphenyl)pteridine [Example 148]” was tested, and the IC50 [1] was 7200 nM, the IC50 [3] was 300 nM and the IC50 [2] was 300 nM.
COc1ccc(-c2cnc3nc(N)nc(N4CCN(C(=O)c5ccc(Cl)cc5)CC4)c3n2)cc1OC [Example 12] was tested, and the IC50 [1] was 5000 nM, the IC50 [3] was 200 nM and the IC50 [2] was 300 nM.
In the case of COc1ccc(-c2cnc3nc(N)nc(N4CCN(C(=O)CCc5ccccc5)CC4)c3n2)cc1OC [Example 15, 2-amino-4-[(N-hydrocinnamoyl)-piperazin-1-yl]-6-(3,4-dimethoxyphenyl)pteridine], the IC50 [1] is reported as 7000 nM, the IC50 [3] is reported as 10 nM and the IC50 [2] is reported as 100 nM.
Work on COc1ccc(-c2cnc3nc(N)nc(N4CCN(C(=O)N(C(C)C)C(C)C)CC4)c3n2)cc1OC [Example 20, 2-amino-4-[(N-diisopropylcarbamoyl)-piperazin-1-yl]-6-(3,4-dimethoxy-phenyl)pteridine] yielded an IC50 [1] of 8500 nM, an IC50 [3] of 30 nM and an IC50 [2] of 500 nM.
Work on CCCCCOc1ccc(C(=O)N2CCN(c3nc(N)nc4ncc(-c5ccc(OC)c(OC)c5)nc34)CC2)cc1 [Example 21, 2-amino-4-[N-(4-pentoxybenzoyl)-piperazin-1-yl]-6-(3,4-dimethoxy-phenyl)pteridine] yielded an IC50 [1] of 6700 nM and an IC50 [2] of 6000 nM.
COc1ccc(-c2cnc3nc(N)nc(N4CCN(C(=O)Cc5cccs5)CC4)c3n2)cc1OC [Example 36, 2-amino-4-[(N-2-thiophenacetyl)-piperazin-1-yl]-6-(3,4-dimethoxy-phenyl)pteridine] gave an IC50 [1] of 800 nM, an IC50 [3] of 300 nM and an IC50 [2] of 800 nM.
In the case of COc1ccc(-c2cnc3nc(N)nc(N4CCN(C(=O)C=Cc5ccccc5)CC4)c3n2)cc1OC [Example 37, 2-amino-4-[(N-cinnamoyl)-piperazin-1-yl]-6-(3,4-dimethoxyphenyl)pteridine], the IC50 [1] is reported as 3300 nM, the IC50 [3] is reported as 100 nM and the IC50 [2] is reported as < 1 nM.
Work on COc1ccc(-c2cnc3nc(N)nc(N4CCN(C(=O)c5cccc6ccccc56)CC4)c3n2)cc1OC [Example 46] yielded an IC50 [1] of 800 nM and an IC50 [3] of 200 nM.
COc1ccc(-c2cnc3nc(N)nc(N4CCN(C(=S)N(C)C)CC4)c3n2)cc1OC [Example 49, 2-amino-4-[(N-dimethylthiocarbamoyl)-piperazin-1-yl]-6-(3,4-dimethoxy-phenyl)pteridine] showed an IC50 [1] of 2200 nM, an IC50 [3] of 70 nM and an IC50 [2] of 400 nM.
In the case of COc1ccc(-c2cnc3nc(N)nc(N4CCN(C(=O)Oc5ccccc5)CC4)c3n2)cc1OC [Example 50, 2-amino-4-[(N-phenoxycarbonyl)-piperazin-1-yl]-6-(3,4-dimethoxy-phenyl)pteridine], the IC50 [1] is reported as 5500 nM, the IC50 [3] is reported as 20 nM and the IC50 [2] is reported as 65 nM.
With CC(=O)N1CCN(c2nc(N)nc3ncc(-c4ccc(C)cc4)nc23)CC1 [Example 56, 2-amino-4-(N-acetylpiperazin-1-yl)-6-(4-tolyl)pteridine] the IC50 [1] was 8700 nM, the IC50 [3] was 3700 nM and the IC50 [2] was 2800 nM.
CC(=O)N1CCN(c2nc(N)nc3ncc(-c4ccc(F)cc4)nc23)CC1 [Example 57, 2-amino-4-(N-acetylpiperazin-1-yl)-6-(4-fluoro-phenyl)pteridine] gave an IC50 [1] of 9500 nM and an IC50 [2] of 1900 nM.
COc1ccc(-c2cnc3nc(N)nc(N4CCN(c5ccccc5)CC4)c3n2)cc1OC [Example 64, 2-amino-4-(N-phenylpiperazin-1-yl)-6-(3,4-dimethoxyphenyl)pteridine] showed an IC50 [1] of 4400 nM, an IC50 [3] of 50 nM and an IC50 [2] of 400 nM.
For COc1ccc(-c2cnc3nc(N)nc(N4CCN(Cc5ccccc5)CC4)c3n2)cc1OC [Example 65, 2-amino-4-(N-benzylpiperazin-1-yl)-6-(3,4-dimethoxyphenyl)pteridine], the IC50 [1] was 3500 nM and the IC50 [3] was 95 nM.
COc1ccc(OC(=O)N2CCN(c3nc(N)nc4ncc(-c5ccc(OC)c(OC)c5)nc34)CC2)cc1 [Example 91, 2-amino-4-[(N-4-methoxy-phenoxy-carbonyl)-piperazin-1-yl]-6-(3,4-dimethoxy-phenyl)pteridine] showed an IC50 [1] of 4200 nM, an IC50 [3] of 60 nM and an IC50 [2] of 52 nM.
In the case of COc1ccc(-c2cnc3nc(N)nc(N4CCN(C(=O)Oc5ccc(F)cc5)CC4)c3n2)cc1OC [Example 92, 2-amino-4-[(N-4-fluoro-phenoxy-carbonyl)-piperazin-1-yl]-6-(3,4-dimethoxyphenyl)pteridine], the IC50 [1] is reported as 8600 nM, the IC50 [3] is reported as 60 nM and the IC50 [2] is reported as 50 nM.
Work on COc1ccc(-c2cnc3nc(N)nc(N4CCN(C(=O)Oc5ccccc5OC)CC4)c3n2)cc1OC [Example 93] yielded an IC50 [1] of 4500 nM, an IC50 [3] of 50 nM and an IC50 [2] of 70 nM.
Work on COc1ccc(-c2cnc3nc(N)nc(N4CCN(C(=O)OCC(C)C)CC4)c3n2)cc1OC [Example 95, 2-amino-4-[N-isobutoxy-carbonyl-piperazin-1-yl]-6-(3,4-dimethoxyphenyl)pteridine] yielded an IC50 [1] of 1000 nM, an IC50 [3] of 100 nM and an IC50 [2] of 120 nM.
Work on COc1ccc(-c2cnc3nc(N)nc(N4CCN(C(=O)Oc5ccc6ccccc6c5)CC4)c3n2)cc1OC [Example 98] yielded an IC50 [1] of 6200 nM, an IC50 [3] of 80 nM and an IC50 [2] of 120 nM.
In the case of COc1ccc(-c2cnc3nc(N)nc(N4CCN(C(=O)Nc5ccc(F)cc5)CC4)c3n2)cc1OC [Example 100], the IC50 [1] is reported as 7400 nM, the IC50 [3] is reported as 510 nM and the IC50 [2] is reported as 7.4 nM.
COc1ccc(-c2cnc3nc(N)nc(N4CCN(C(=O)Nc5ccc(C)cc5)CC4)c3n2)cc1OC [Example 101, 2-amino-4-(N-4-methylphenyl-carbamoyl-piperazin-1-yl)-6-(3,4-dimethoxyphenyl)pteridine] was tested, and the IC50 [1] was 5600 nM, the IC50 [3] was 430 nM and the IC50 [2] was 0.8 nM.
With COc1ccc(-c2cnc3nc(N)nc(N4CCN(C(=O)Nc5ccsc5)CC4)c3n2)cc1OC [Example 107, 2-amino-4-(N-3-thienylcarbamoyl-piperazin-1-yl)-6-(3,4-dimethoxyphenyl)pteridines] the IC50 [1] was 800 nM, the IC50 [3] was 500 nM and the IC50 [2] was 3 nM.
COc1ccc(-c2cnc3nc(N)nc(N4CCN(C(=O)NCCc5cccs5)CC4)c3n2)cc1OC [Example 108, 2-amino-4-[N-2-(2-thienyl)ethylcarbamoyl-piperazin-1-yl]-6-(3,4-dimethoxyphenyl)pteridine] was tested, and the IC50 [1] was 1000 nM, the IC50 [3] was 400 nM and the IC50 [2] was 34 nM.
COc1ccc(-c2cnc3nc(N)nc(N4CCN(CC5CCCCC5)CC4)c3n2)cc1OC [Example 123] showed an IC50 [1] of 4200 nM, an IC50 [3] of 800 nM and an IC50 [2] of 3900 nM.
With COc1ccc(-c2cnc3nc(N)nc(N4CCN(CC(=O)N(C)c5ccccc5)CC4)c3n2)cc1OC [Example 132, 2-amino-4-(2-[piperazin-1-yl]-acetic acid N-methyl N-phenyl amide)-6-(3,4-dimethoxyphenyl)pteridine] the IC50 [1] was 5300 nM, the IC50 [3] was 50 nM and the IC50 [2] was < 100 nM.
In the case of COc1ccc(-c2cnc3nc(N)nc(N4CCN(Cc5ccc(Cl)cc5)CC4)c3n2)cc1OC [Example 139, 2-amino-4-((4-chlorobenzyl)piperazin-1-yl)-6-(3,4-dimethoxyphenyl)pteridine], the IC50 [1] is reported as 1200 nM and the IC50 [3] is reported as 400 nM.
Work on COc1ccc(-c2cnc3nc(N)nc(N4CCN(c5cccc(C(F)(F)F)c5)CC4)c3n2)cc1OC [Example 173, 2-amino-6-(3,4-dimethoxyphenyl)-4-((3-trifluoromethylphenyl)-piperazin-1-yl)pteridine] yielded an IC50 [1] of 4600 nM and an IC50 [2] of 700 nM.
Compound COc1ccc(-c2cnc3nc(N)nc(N4CCN(c5ccc(C(F)(F)F)cc5)CC4)c3n2)cc1OC [Example 180, 2-amino-6-(3,4-dimethoxyphenyl)-4-((4-trifluoromethylphenyl)-piperazin-1-yl)pteridine] has an IC50 [1] of 4400 nM and an IC50 [3] of 1400 nM.
